Results reported in paper PMC7369900 (International Journal of Molecular Sciences, 2020).
In brackets after ≈: the same amount, converted by molar mass.

What was measured:
[1] = tested on: S. epidermidis ATCC 12228; test: microbe, parasite or virus in culture; format: cell-based, Staphylococcus epidermidis; conditions: Staphylococcus epidermidis, ATCC12228; S. epidermidis ATCC 12228, MHB
Experimental: (§1) The antibacterial activity of TP10-NH2-based conjugates, as well as its constituents, was evaluated by microdilution assay in Mueller Hinton broth, MHB (Table 1). […] There are, however, some exceptions. […] Its activity against two other tested bacteria was somewhat lower though.
(§2) The antibacterial activity (bacteriostatic: MIC and bactericidal: MBC) of the tested compounds was determined in MHB (Mueller Hinton Broth, Sigma Aldrich, St. Louis, MO, USA) using a serial two-fold dilution method in 96-well microtiter plates according to CLSI recommendations, described in M07-A10 document. The exact conditions have been described previously. All experiments were performed in three replicates. The MIC90 and MIC50 values were defined as the concentrations of compounds tested that caused a 90% or 50% reduction of growth, respectively, comparing to the drug-free control.

LLC-PK1 = test: cells; format: cell-based, pig; conditions: Sus scrofa; LLC-PK1, 72 h, MTT
Experimental: (§3) Among the conjugates, LVXC-S-S-CTP10-NH2 (5) was the least cytotoxic. […] In the case of HEK 293 and LLC-PK1 cells, the IC50 values of 5 were nearly four times higher. […] Additionally, we noted that the cancer cells Hep G2 were less sensitive to the action of the given compounds than the non-cancer cells (HEK 293 and LLC-PK1).
(§4) Cytotoxicity was assessed against three mammalian cell lines: LLC-PK1, Hep G2, and HEK 293. Multiwell (96–well) plates were seeded at 7000 cells/well in Medium 199 supplemented with 7.5% FBS, MEM Eagle’s medium supplemented with 10% FBS, or DMEM medium supplemented with 10% FBS, respectively. All media were supplemented with L-glutamine and antibiotics (penicillin/streptomycin). Cells were allowed to attach overnight. Drugs were dissolved in cell culture medium and added to wells in 100-µL aliquots of 2× concentrated solutions, in triplicates. To control wells, 100 µL of the medium were added. Cells were incubated with the studied compounds for 72 h at 37 °C and 95%/5% or 90%/10% (HEK 293 cells) CO2 atmosphere. Then, 20-µL aliquots of MTT solution in PBS (4 mg/mL) were added to all wells and plates were incubated further for 3 h in 37 °C. Formazan crystals formed were dissolved in 100 µL of DMSO and the absorbance of the solutions was measured using a multiwell plate reader (Spark, Tecan, Männedorf, Switzerland) at λ = 540 nm. Cytotoxicity was determined compared to the drug-free control. All experiments were performed in triplicates.

Hep G2 = test: cells; format: cell-based, human; conditions: Homo sapiens, HepG2; Hep G2, 72 h, MTT
Experimental: as §3, §4

HEK 293 [2] = test: cells; format: cell-based, human; conditions: Homo sapiens, HEK293; HEK 293, 72 h, MTT
Experimental: as §3, §4

E. coli ATCC 25922 = test: microbe, parasite or virus in culture; format: cell-based, Escherichia coli; conditions: Escherichia coli, ATCC25922; E. coli ATCC 25922, MHB
Experimental: as §1, §2

P. aeruginosa ATCC 27853 = test: microbe, parasite or virus in culture; format: cell-based, Pseudomonas aeruginosa; conditions: Pseudomonas aeruginosa, ATCC27853; P. aeruginosa ATCC 27853, MHB
Experimental: as §1, §2

HEK 293 [3] = test: ROS generation (CM-H2DCFDA, flow cytometry); format: cell-based, human; conditions: human, 500 µM
Experimental: (§5) In the positive controls treated with H2O2, the fraction of ROS-positive cells exceeded 75%. […] Strikingly, in HL-60, a biologically significant effect was observed almost immediately (after 15 min of incubation). The same was noted after 1 h in the HEK 293 cell line. […] Similarly, conjugates 4 and 5 generated ROS at the low level (less than 15% for HL-60 and less than 20% for HEK 293) (manuscript in preparation). […] For HL-60, the critical level of ROS was noted after 15 min of incubation.
(§6) ROS generation activity was evaluated as described previously. Briefly, HEK 293 cells were seeded on 35-mm Petri dishes in the amount of 15,000 cells per plate for 24 h in DMEM medium. […] Positive controls contained 250 µM H2O2, while negative controls were without any additions. After 0.5, 2.5, 5.5, and 24 h of incubation at 37 °C, the CM-H2DCFDA molecular probe (Thermo Fischer Scientific, Waltham, USA) was added to the plates and incubation was continued for another 0.5 h. The HEK 293 cells were detached with 0.05% trypsin solution in PBS and HBSS (Hank’s Balanced Salt Solution) and suspended in fresh DMEM medium. All samples were additionally stained with 7-AAD (7-aminoactinomycin D, 0.8 µg/mL) and immediately analysed with a Guava easyCyte flow cytometer (Merc, Burlington, USA). The determinations were performed in triplicates.

HL-60 = test: ROS generation (CM-H2DCFDA, flow cytometry); format: cell-based, human; conditions: human, 100 µM
Experimental: as §5, §6

[4] = target: T1, yeast DNA topoisomerase II (Saccharomyces cerevisiae, UniProt P06786); test: biochemical; format: biochemical; conditions: 500 µM
T1 construct: purchased Inspiralis (Norwich, UK)

human red blood cells = test: Hemolysis assay
S. aureus ATCC 29213 = test: microbe, parasite or virus in culture; format: cell-based, Staphylococcus aureus; conditions: Staphylococcus aureus, ATCC29213; S. aureus ATCC 29213, MHB
Experimental: as §1, §2

E. coli ATCC 25,922 = test: Resistance induction by serial passage on MHA plates; format: cell-based, Escherichia coli; conditions: passaged with CIP 0.012 μM or 3 0.012 μM
[5] = tested on: Gram-positive and Gram-negative bacteria; format: cell-based; conditions: MHB, four bacteria
Experimental: as §1, §2

S. aureus ATCC 29,213 = test: Resistance induction by serial passage on MHA plates; format: cell-based, Staphylococcus aureus; conditions: passaged with CIP 0.1875 μM or 3 0.375 μM
C. glabrata DSM 11226 = test: microbe, parasite or virus in culture; conditions: Nakaseomyces glabratus, DSM11226
[6] = tested on: yeasts of the Candida genus; test: microbe, parasite or virus in culture; conditions: read-out: MIC against Candida strains
C. krusei DSM 6128 = test: microbe, parasite or virus in culture; conditions: Pichia kudriavzevii, DSM6128

T1 sequence (P06786 whole entry): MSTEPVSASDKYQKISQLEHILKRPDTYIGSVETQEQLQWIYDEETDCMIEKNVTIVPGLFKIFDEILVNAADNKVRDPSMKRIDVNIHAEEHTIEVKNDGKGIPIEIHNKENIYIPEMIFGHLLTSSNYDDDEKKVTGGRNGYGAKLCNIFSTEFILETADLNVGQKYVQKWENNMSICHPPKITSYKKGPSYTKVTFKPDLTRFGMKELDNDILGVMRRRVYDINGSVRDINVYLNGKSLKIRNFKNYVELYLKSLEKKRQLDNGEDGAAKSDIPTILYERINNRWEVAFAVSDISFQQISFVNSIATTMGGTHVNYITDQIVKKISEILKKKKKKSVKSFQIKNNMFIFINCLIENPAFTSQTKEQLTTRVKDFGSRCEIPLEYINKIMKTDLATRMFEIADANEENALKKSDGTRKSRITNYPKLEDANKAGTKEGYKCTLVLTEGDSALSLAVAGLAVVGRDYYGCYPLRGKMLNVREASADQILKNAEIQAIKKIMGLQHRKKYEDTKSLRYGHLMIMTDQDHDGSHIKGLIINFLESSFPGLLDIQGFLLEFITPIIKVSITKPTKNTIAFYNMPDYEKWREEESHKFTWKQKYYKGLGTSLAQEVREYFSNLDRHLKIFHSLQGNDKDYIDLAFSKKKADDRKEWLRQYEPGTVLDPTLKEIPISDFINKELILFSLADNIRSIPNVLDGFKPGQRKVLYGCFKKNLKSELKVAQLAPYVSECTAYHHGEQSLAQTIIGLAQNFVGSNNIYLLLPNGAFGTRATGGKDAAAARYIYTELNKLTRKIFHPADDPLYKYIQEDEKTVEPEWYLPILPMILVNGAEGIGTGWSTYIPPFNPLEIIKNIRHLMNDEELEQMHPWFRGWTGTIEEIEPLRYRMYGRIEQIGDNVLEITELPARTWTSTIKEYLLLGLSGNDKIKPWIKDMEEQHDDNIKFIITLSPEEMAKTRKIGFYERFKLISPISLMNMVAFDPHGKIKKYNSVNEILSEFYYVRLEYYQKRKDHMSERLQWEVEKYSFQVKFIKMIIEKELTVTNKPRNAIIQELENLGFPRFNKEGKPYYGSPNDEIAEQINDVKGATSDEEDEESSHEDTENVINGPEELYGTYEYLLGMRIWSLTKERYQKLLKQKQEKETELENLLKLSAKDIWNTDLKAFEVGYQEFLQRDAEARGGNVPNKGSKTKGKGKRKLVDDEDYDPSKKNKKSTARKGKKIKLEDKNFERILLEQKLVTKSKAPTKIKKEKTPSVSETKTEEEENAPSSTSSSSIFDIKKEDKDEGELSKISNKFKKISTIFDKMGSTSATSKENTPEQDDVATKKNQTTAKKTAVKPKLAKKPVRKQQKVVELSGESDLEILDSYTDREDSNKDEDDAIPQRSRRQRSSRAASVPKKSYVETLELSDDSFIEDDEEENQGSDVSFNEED

SMILES | MIC50 [1] | MIC90 [1] | IC50 (LLC-PK1) | IC50 (Hep G2) | IC50 (HEK 293 [2]) | MIC50 (E. coli ATCC 25922) | MIC90 (E. coli ATCC 25922) | MIC50 (P. aeruginosa ATCC 27853) | MIC90 (P. aeruginosa ATCC 27853) | Topoisomerase II inhibition at the highest used concentration [4] | Hemolytic effect (human red blood cells) | MIC50 (S. aureus ATCC 29213) | MIC90 (S. aureus ATCC 29213) | MIC50 range over tested bacteria [5] | MIC90, upper end of range over tested bacteria [5] | further results
O=C(O)c1cn(C2CC2)c2cc(N3CCNCC3)c(F)cc2c1=O [CIP, ciprofloxacin] | 0.8 µM (≈ 0.265 µg/mL) | 1.6 µM (≈ 0.53 µg/mL) | > 200 µM | > 200 µM | > 200 µM | < 0.0125 µM | 0.0125 µM (≈ 0.00414 µg/mL) | 0.4 µM (≈ 0.133 µg/mL) | 0.4 µM (≈ 0.133 µg/mL) | residual activity | do not cause a hemolytic effect | 0.2 µM (≈ 0.0663 µg/mL) | 0.2 µM (≈ 0.0663 µg/mL) | 0.0125 to 0.8 µM | ≤ 1.6 µM | Incubation time at which significant ROS effect was noted (HEK 293 [3]): 1 h; Incubation time at which significant/critical ROS level was noted (HL-60): 15 min; Dot plot quadrant LB (HL-60; 3 h): 96.2 ± 2.6; Dot plot quadrant LT (HL-60; 3 h): 1.1 ± 1.5; Dot plot quadrant RB (HL-60; 3 h): 2.6 ± 1.6; Dot plot quadrant RT (HL-60; 3 h): 0.7 ± 0.7; Dot plot quadrant LB (HL-60; 6 h): 97.5 ± 1.2; Dot plot quadrant LT (HL-60; 6 h): 0.4 ± 0.3; Dot plot quadrant RB (HL-60; 6 h): 2.1 ± 1.3; Dot plot quadrant RT (HL-60; 6 h): 0.0 ± 0.0; Dot plot quadrant LB (HL-60; 24 h): 99.7 ± 0.2; Dot plot quadrant LT (HL-60; 24 h): 0.1 ± 0.1; Dot plot quadrant RB (HL-60; 24 h): 0.2 ± 0.1; Dot plot quadrant RT (HL-60; 24 h): 0.0 ± 0.0; Increase of MIC after the 5th passage (E. coli ATCC 25,922): 8 fold; Increase of MIC after the 10th passage (E. coli ATCC 25,922): 8 fold; Increase of MIC compared to the control after passaging (S. aureus ATCC 29,213): 2 fold
C[C@H]1COc2c(N3CCN(C)CC3)c(F)cc3c(=O)c(C(=O)O)cn1c23 [LVX, levofloxacin, reference compound] | 0.8 µM (≈ 0.289 µg/mL) | 1.6 µM (≈ 0.578 µg/mL) | > 200 µM | > 200 µM | > 200 µM | 0.025 µM (≈ 0.00903 µg/mL) | 0.025 µM (≈ 0.00903 µg/mL) | 0.8 µM (≈ 0.289 µg/mL) | 0.8 µM (≈ 0.289 µg/mL) | residual activity | do not cause a hemolytic effect | 0.4 µM (≈ 0.145 µg/mL) | 0.4 µM (≈ 0.145 µg/mL) | 0.0125 to 0.8 µM | ≤ 1.6 µM | MIC50 (C. glabrata DSM 11226): > 200 µM; MIC [6]: > 200 µM; MIC50 (C. krusei DSM 6128): > 200 µM
